Measured values published in US12202818B2, “Compounds and methods for CD73 modulation and indications therefor” (Opna Bio SA, priority 2020, dated 2025).

Legend:
human CD73 = target: T1, human CD73 (Homo sapiens, UniProt P21589); assay: Inhibitor activity against CD73 in cell based assay (CD73 expressing CHO-K1 cells); settings: CHO-K1 cells expressing human CD73, 150 μM AMP, 4 hours of incubation; read-out: CHO-K1 CELL_VARIANT: CD73 IC50
T1 construct: expressed in transfected cells
T1 sequence (P21589 27-549): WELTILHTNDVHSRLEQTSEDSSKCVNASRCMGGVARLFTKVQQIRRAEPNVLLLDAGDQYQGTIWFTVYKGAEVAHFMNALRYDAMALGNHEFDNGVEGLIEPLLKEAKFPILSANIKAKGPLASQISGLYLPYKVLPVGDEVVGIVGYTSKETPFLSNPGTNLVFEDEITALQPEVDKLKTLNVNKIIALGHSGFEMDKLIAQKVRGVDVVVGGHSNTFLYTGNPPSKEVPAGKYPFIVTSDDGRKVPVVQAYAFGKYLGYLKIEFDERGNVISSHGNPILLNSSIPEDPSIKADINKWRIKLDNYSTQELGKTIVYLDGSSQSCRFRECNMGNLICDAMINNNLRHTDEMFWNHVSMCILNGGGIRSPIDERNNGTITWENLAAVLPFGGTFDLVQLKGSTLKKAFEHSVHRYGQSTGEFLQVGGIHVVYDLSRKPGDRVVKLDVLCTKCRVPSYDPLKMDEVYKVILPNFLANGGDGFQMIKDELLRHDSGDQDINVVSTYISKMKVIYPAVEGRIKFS
Summary of the method: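 Stable human CD73 CHO-K1 cells, 1×10^4/well, exposed to an 8-point 1:3 compound series (top 10 μM, 0.2% DMSO) plus 150 μM AMP for 4 h. Remaining AMP in the supernatant was read by CellTiter-Glo 2.0 luminescence with 1 μM ATP after 30 min at room temperature. IC50 came from nonlinear regression of % inhibition against cell and media-only controls.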

[1] = target: T2, Human CD73 (amino acid residues 27-549) (Homo sapiens, UniProt P21589); assay: CD73 enzymatic assay (luciferase-based indirect assay, CellTiter-Glo); format: biochemical; settings: 0.4 nM CD73, 150 μM AMP, 1 hour at room temperature
T2 construct: Human CD73 (amino acid residues 27-549); His tag (N); made in house; host or cells: E. coli
T2 sequence (P21589 27-549): T1 sequence (P21589 27-549)
Summary of the method: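 N-His human CD73 (27-549) expressed in E. coli, 0.4 nM, incubated with 150 μM AMP and compound in 50 mM HEPES pH 7.4, 0.01% Tween-20, 1 h at RT. Remaining AMP read via CellTiter-Glo luminescence with 1 μM ATP after 30 min; IC50 from nonlinear regression of % inhibition.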

Compound | IC50 (human CD73) [µM] | IC50 [1] [µM]
Cc1noc(C)c1-c1cc(O[C@@H]2CCN(c3cnn(CCO)c(=O)c3Cl)C2)ncn1 [P-0178, (R)-4-chloro-5-(3-((6-(3,5-dimethylisoxazol-4-yl)pyrimidin-4-yl)oxy)pyrrolidin-1-yl)-2-(2-hydroxyethyl)pyridazin-3(2H)-one] | 0.001 to 10 | 0.001 to 10
Cc1nn(CC(O)CCCl)c(C)c1-c1ccnc(O[C@@H]2CCN(c3cnn(CCO)c(=O)c3Cl)C2)c1 (stereo partly drawn) [P-0064, 4-chloro-5-((3R)-3-((4-(1-(4-chloro-2-hydroxybutyl)-3,5-dimethyl-1H-pyrazol-4-yl)pyridin-2-yl)oxy)pyrrolidin-1-yl)-2-(2-hydroxyethyl)pyridazin-3(2H)-one] | 0.001 to 10 | 0.001 to 10
CCCS(=O)(=O)Nc1ccc(-c2ccnc(O[C@@H]3CCN(c4cn[nH]c(=O)c4Cl)C3)c2)c(F)c1 [P-0204, (R)-N-(4-(2-((1-(5-chloro-6-oxo-1,6-dihydropyridazin-4-yl)pyrrolidin-3-yl)oxy)pyridin-4-yl)-3-fluorophenyl)propane-1-sulfonamide] | 0.001 to 10 | 0.001 to 10
O=c1[nH]ncc(N2CC[C@@H](Oc3cc(N4[C@@H]5CC[C@H]4CC(F)(F)C5)ccn3)C2)c1Cl [P-0111, 4-chloro-5-((R)-3-((4-((1R,5S)-3,3-difluoro-8-azabicyclo[3.2.1]octan-8-yl)pyridin-2-yl)oxy)pyrrolidin-1-yl)pyridazin-3(2H)-one] | 10 to 100 | 0.001 to 10
Cc1nn(C)c(C)c1-c1cc(F)nc(O[C@@H]2CCN(c3cnn(CCO)c(=O)c3Cl)C2)c1 [P-0199, (R)-4-chloro-5 (3-((6-fluoro-4-(1,3,5-trimethyl-1H-pyrazol-4-yl)pyridin-2-yl)oxy)pyrrolidin-1-yl)-2-(2-hydroxyethyl)pyridazin-3(2H)-one] | 0.001 to 10 | 0.001 to 10
CNC(=O)Cn1nc(C)c(-c2ccnc(O[C@@H]3CCN(c4cn[nH]c(=O)c4Cl)C3)c2)c1C [P-0041, (R)-2-(4-(2-((1-(5-chloro-6-oxo-1,6-dihydropyridazin-4-yl)pyrrolidin-3-yl)oxy)pyridin-4-yl)-3,5-dimethyl-1H-pyrazol-1-yl)-N-methylacetamide] | 0.001 to 10 | 0.001 to 10
Cc1noc(C)c1-c1ccnc(O[C@@H]2CCN(c3cnn(CCO)c(=O)c3Cl)C2)c1 [P-0176, (R)-4-chloro-5-(3-((4-(3,5-dimethylisoxazol-4-yl)pyridin-2-yl)oxy)pyrrolidin-1-yl)-2-(2-hydroxyethyl)pyridazin-3(2H)-one] | 0.001 to 10 | 0.001 to 10
Cc1noc(C)c1-c1cc(O[C@@H]2CCN(c3cn[nH]c(=O)c3Cl)C2)ncc1F [P-0149, (R)-4-chloro-5-(3-((4-(3,5-dimethylisoxazol-4-yl)-5-fluoropyridin-2-yl)oxy)pyrrolidin-1-yl)pyridazin-3(2H)-one] | 0.001 to 10 | 0.001 to 10
Cc1noc(C)c1-c1cc(F)nc(O[C@@H]2CCN(c3cn[nH]c(=O)c3Cl)C2)c1 [P-0195, (R)-4-chloro-5-(3-((4-(3,5-dimethylisoxazol-4-yl)-6-fluoropyridin-2-yl)oxy)pyrrolidin-1-yl)pyridazin-3(2H)-one] | 0.001 to 10 | 0.001 to 10
CC(=O)C1CCC(c2ccnc(O[C@@H]3CCN(c4cn[nH]c(=O)c4Cl)C3)c2)CC1 (stereo partly drawn) [P-0060, (R)-5-(3-((4-(4-acetylcyclohexyl)pyridin-2-yl)oxy)pyrrolidin-1-yl)-4-chloropyridazin-3(2H)-one] | 0.001 to 10 | 0.001 to 10
Cc1nn(C)c(C)c1-c1cc(O[C@@H]2CCN(c3cn[nH]c(=O)c3Cl)C2)nc(N)n1 [P-0089, (R)-5-(3-((2-amino-6-(1,3,5-trimethyl-1H-pyrazol-4-yl)pyrimidin-4-yl)oxy)pyrrolidin-1-yl)-4-chloropyridazin-3(2H)-one] | 0.001 to 10 | 0.001 to 10
Cc1noc(C)c1-c1cnnc(O[C@@H]2CCN(c3cn[nH]c(=O)c3Cl)C2)c1 [P-0158, (R)-4-chloro-5-(3-((5-(3,5-dimethylisoxazol-4-yl)pyridazin-3-yl)oxy)pyrrolidin-1-yl)pyridazin-3(2H)-one] | 0.001 to 10 | 0.001 to 10
Cc1nn(CC2CC(C(N)=O)C2)c(C)c1-c1ccnc(O[C@@H]2CCN(c3cn[nH]c(=O)c3Cl)C2)c1 (stereo partly drawn) [P-0056, (R)-3-((4-(2-((1-(5-chloro-6-oxo-1,6-dihydropyridazin-4-yl)pyrrolidin-3-yl)oxy)pyridin-4-yl)-3,5-dimethyl-1H-pyrazol-1-yl)methyl)cyclobutane-1-carboxamide] | 0.001 to 10 | 0.001 to 10
CS(=O)(=O)N1CC=C(c2ccnc(O[C@@H]3CCN(c4cn[nH]c(=O)c4Cl)C3)c2)CC1 [P-0029, (R)-4-chloro-5-(3-((1′-(methylsulfonyl)-1′,2′,3′,6′-tetrahydro-[4,4′-bipyridin]-2-yl)oxy)pyrrolidin-1-yl)pyridazin-3(2H)-one] | 10 to 100 | 0.001 to 10
Cc1nn(C2(CC(N)=O)CCC2)c(C)c1-c1ccnc(O[C@@H]2CCN(c3cn[nH]c(=O)c3Cl)C2)c1 [P-0035, (R)-2-(1-(4-(2-((1-(5-chloro-6-oxo-1,6-dihydropyridazin-4-yl)pyrrolidin-3-yl)oxy)pyridin-4-yl)-3,5-dimethyl-1H-pyrazol-1-yl)cyclobutyl)acetamide] | 0.001 to 10 | 0.001 to 10

Second part, the compound after the results:

IC50 (human CD73) [µM] | IC50 [1] [µM] | Compound
0.001 to 10 | 0.001 to 10 | Cc1noc(C)c1-c1cc(F)nc(O[C@@H]2CCN(c3cnn(CCO)c(=O)c3Cl)C2)c1 [P-0123, (R)-4-chloro-5-(3-((4-(3,5-dimethylisoxazol-4-yl)-6-fluoropyridin-2-yl)oxy)pyrrolidin-1-yl)-2-(2-hydroxyethyl)pyridazin-3(2H)-one]
0.001 to 10 | 0.001 to 10 | Cc1nn(CC(C)(C)O)c(C)c1-c1ccnc(O[C@H]2CN(c3cn[nH]c(=O)c3Cl)C[C@@H]2F)c1 [P-0021, 4-chloro-5-((3S,4S)-3-fluoro-4-((4-(1-(2-hydroxy-2-methylpropyl)-3,5-dimethyl-1H-pyrazol-4-yl)pyridin-2-yl)oxy)pyrrolidin-1-yl)pyridazin-3(2H)-one]
0.001 to 10 | 0.001 to 10 | Cc1nn(C)c(C)c1-c1ccnc(O[C@@H]2CCN(c3cn[nH]c(=O)c3C#N)C2)c1 [P-0114, (R)-3-oxo-5-(3-((4-(1,3,5-trimethyl-1H-pyrazol-4-yl)pyridin-2-yl)oxy)pyrrolidin-1-yl)-2,3-dihydropyridazine-4-carbonitrile]
0.001 to 10 | 0.001 to 10 | Cc1nn(CC2CC(C#N)C2)c(C)c1-c1ccnc(O[C@@H]2CCN(c3cn[nH]c(=O)c3Cl)C2)c1 (stereo partly drawn) [P-0057, (R)-3-((4-(2-((1-(5-chloro-6-oxo-1,6-dihydropyridazin-4-yl)pyrrolidin-3-yl)oxy)pyridin-4-yl)-3,5-dimethyl-1H-pyrazol-1-yl)methyl)cyclobutane-1-carbonitrile]
0.001 to 10 | 0.001 to 10 | Cc1noc(C)c1-c1ccnc(O[C@@H]2CCN(c3cn[nH]c(=O)c3C(F)(F)F)C2)c1 [P-0051, (R)-5-(3-((4-(3,5-dimethylisoxazol-4-yl)pyridin-2-yl)oxy)pyrrolidin-1-yl)-4-(trifluoromethyl)pyridazin-3(2H)-one]
0.001 to 10 | 0.001 to 10 | CCNS(=O)(=O)c1ccc(-c2ccnc(O[C@@H]3CCN(c4cn[nH]c(=O)c4Cl)C3)c2)cc1 [P-0243, (R)-4-(2-((1-(5-chloro-6-oxo-1,6-dihydropyridazin-4-yl)pyrrolidin-3-yl)oxy)pyridin-4-yl)-N-ethylbenzenesulfonamide]
0.001 to 10 | 0.001 to 10 | N#CC1CCC(c2ccnc(O[C@@H]3CCN(c4cn[nH]c(=O)c4Cl)C3)c2)CC1 (stereo partly drawn) [P-0091, (R)-4-(2-((1-(5-chloro-6-oxo-1,6-dihydropyridazin-4-yl)pyrrolidin-3-yl)oxy)pyridin-4-yl)cyclohexane-1-carbonitrile]
10 to 100 | 0.001 to 10 | CC1(C)CNCCN1c1ccnc(O[C@@H]2CCN(c3cn[nH]c(=O)c3Cl)C2)c1 [P-0080, (R)-4-chloro-5-(3-((4-(2,2-dimethylpiperazin-1-yl)pyridin-2-yl)oxy)pyrrolidin-1-yl)pyridazin-3(2H)-one]
0.001 to 10 | 0.001 to 10 | CCCNS(=O)(=O)c1cc(C)c(-c2ccnc(O[C@@H]3CCN(c4cn[nH]c(=O)c4Cl)C3)c2)c(F)c1 [P-0225, (R)-4-(2-((1-(5-chloro-6-oxo-1,6-dihydropyridazin-4-yl)pyrrolidin-3-yl)oxy)pyridin-4-yl)-3-fluoro-5-methyl-N-propylbenzenesulfonamide]
0.001 to 10 | 0.001 to 10 | O=c1[nH]ncc(N2CC[C@@H](Oc3cc(-n4cccc4)ccn3)C2)c1Cl [P-0252, (R)-5-(3-((4-(1H-pyrrol-1-yl)pyridin-2-yl)oxy)pyrrolidin-1-yl)-4-chloropyridazin-3(2H)-one]
